Test results as given in patent US11642342B2, “Combinations of estrogen receptor degraders and cyclin-dependent kinase inhibitors for treating cancer” (Accutar Biotechnology, priority 2019, dated 2023).

How the values were obtained:
[1] = system: Tamoxifen-resistant MCF7 human xenograft tumors; assay: Anti-tumor efficacy in tamoxifen-resistant MCF7 human xenograft tumors; format: in vivo; conditions: tamoxifen-resistant MCF7 xenograft (passage 9), BALB/c nude mouse, treated for 28; versus each agent alone
Procedure: Tamoxifen-resistant MCF-7 cells were subcutaneously implanted to establish cell line-derived xenograft tumors. […] This tumor was then defined as passage 0. The tumor fragments were constantly implanted into new animals (per passage) with 30 mg/kg Tamoxifen treatment. For the efficacy study, the passage 9 tamoxifen-resistant tumor fragments (˜30 mm3) were inoculated subcutaneously at the right flank of each BALB/c nude mouse, which has been implanted with 17β-estradiol (0.36 mg) tablet subcutaneously in the left flank three days before. When the average tumor volume reached approximately 175 mm3, the animals were randomized and treated for 28. Tamoxifen-resistant MCF7 human xenograft tumors were treated with an ER degrader 160b alone, or with a CDK4/6 inhibitor, Palbociclib, alone, or with the combination of ER degrader 160b and Palbociclib.

[2] = system: MCF7 human xenograft tumors; assay: Anti-tumor efficacy in MCF7 human xenograft tumors; format: in vivo; conditions: BALB/c nude mouse, 17β-estradiol tablet, treated for 21 days, versus each agent alone
Procedure: MCF-7 cells, a breast cancer cell cline, (10×10^6) in 0.1 mL of PBS mixed with 0.1 mL matrigel (total 0.2 mL) were inoculated subcutaneously at the right flank of each mouse, which has been implanted with 17β-estradiol (0.18 mg) tablet subcutaneously in the left flank three days before. When the average tumor volume reaches approximately 175 mm^3, the animals were randomized and treatment was started.
MCF-7 tumor cells (10×10^6) in 0.1 mL of PBS mixed with 0.1 mL matrigel (total 0.2 mL) were inoculated subcutaneously at the right flank of each BALB/c nude mouse, which has been implanted with 17β-estradiol (0.18 mg) tablet subcutaneously in the left flank three days before. When the average tumor volume reached approximately 175 mm^3, the animals were randomized and treated for 21 days with an ER degrader 160a alone, or with a CDK4/6 inhibitor, Palbociclib, alone, or with the combination of ER degrader 160a and Palbociclib.
MCF-7 tumor cells (10×10^6) in 0.1 mL of PBS mixed with 0.1 mL matrigel (total 0.2 mL) were inoculated subcutaneously at the right flank of each BALB/c nude mouse, which has been implanted with 17β-estradiol (0.18 mg) tablet subcutaneously in the left flank three days before. […]

[3] = system: ER-positive T47D cells; assay: T47D cell growth inhibition (CellTiter-Glo, 6 days), ER degrader plus CDK4/6 inhibitor; format: cell-based, human

SMILES: CC/C(=C(\c1ccc(O)cc1)c1ccc(N2CCC(CN3CCN(c4ccc5c(c4)CN([C@H]4CCC(=O)NC4=O)C5=O)CC3)CC2)cc1)c1ccccc1 [160b]
- tumor growth inhibition, combination with Palbociclib [1]: synergizes with CDK4/6 inhibitor Palbociclib in vivo to inhibit tumor growth with greater efficacy than the ER degrader or CDK4/6 inhibitor alone

SMILES: CCC(=C(c1ccc(O)cc1)c1ccc(N2CCC(CN3CCN(c4ccc5c(c4)CN([C@H]4CCC(=O)NC4=O)C5=O)CC3)CC2)cc1)c1ccccc1 [160a, (E)/(Z)-(S)-3-(5-(4-((1-(4-(1-(4-hydroxyphenyl)-2-phenylbut-1-en-1-yl)phenyl)piperidin-4-yl)methyl)piperazin-1-yl)-1-oxoisoindolin-2-yl)piperidine-2,6-dione]
- tumor growth inhibition, combination with Palbociclib [2]: synergizes with CDK4/6 inhibitor Palbociclib in vivo to inhibit tumor growth with greater efficacy than the ER degrader or CDK4/6 inhibitor alone
- cell growth inhibition, combination with Abemaciclib ([3]; ER degrader at increasing concentrations combined with Abemaciclib 10, 30, 100 nM, versus single agent): synergizes with CDK4/6 inhibitor Abemaciclib in vitro to inhibit cell growth with greater efficacy than the ER degrader alone
- cell growth inhibition, combination with Palbociclib ([3]; ER degrader at increasing concentrations combined with Palbociclib 10, 30, 100 nM, versus each agent alone): synergizes with CDK4/6 inhibitor Palbociclib in vitro to inhibit cell growth with greater efficacy than the ER degrader or CDK4/6 inhibitor alone
